# Reference: article PMC11472320, “Computationally Driven Discovery of a BCR-ABL1 Kinase Inhibitor with Activity in Multidrug-Resistant Chronic Myeloid Leukemia” (Journal of Medicinal Chemistry, 2024)
# Like-named read-outs stand apart in the source and are kept apart here.
# Assays:
# MDCKII-MDR1 cells [1] = details: cited from earlier work
# P-glycoprotein (P-gp) = details: Figure 1A; cited from earlier work
# cSRC wt = cSRC wt (Homo sapiens, UniProt P12931); assay: KinaseProfiler enzymatic radiometric kinase assay
# [2] = biological target: T1, hERG potassium ion channel (Homo sapiens, UniProt Q12809); assay: hERG safety evaluation by manual patch-clamp (HEK 293); format: cell-based; details: mean ± SEM in Table S11
# T1 construct: host or cells: HEK 293
# Description: hERG Safety evaluation by manual patch-clamp system
# aIC50 values are presented as the mean ± SEM, n = 3 independent replicates unless otherwise
# 𝜇M) and run in triplicate. cValues a s previously reported in Ref. 1 .dMean of n = 2 independent
# Points indicate the mean, and error bars indicate
# the SD; n ≥ 2 independent replicates. IC 50 values ( 𝜇M) are reported beside the dose -response
# curves and represent the mean ± SEM.
# [3] = Plasma protein binding by equilibrium dialysis; format: in vitro ADME; details: human plasma; for fraction unbound / recovery / remaining at 6 h: both sexes
# [4] = Metabolic stability in hepatocytes; format: in vitro ADME, human; details: for hepatocyte CLint: both sexes, read-out: HEPClint (H); for hepatocyte CLint / t1/2 (H): human hepatocytes
# Description: (§1) Metabolic stability in hepatocytes
# (§2) Table S4. Hepatocyte details used in the hepatocyte stability assay.
# (§3) Human Hepatocytes, Mixed-Gender BiolVT (Cat No. X008001)
# (§4) Mouse Hepatocytes, Male-Gender BiolVT (Cat No. M005052)
# in vitro [5] = details: dog, MDCK-MDR1
# MDR1 (P-gp) = assay: in vitro; details: dog, MDCK-MDR1
# MDR1 = assay: in vitro; details: dog, MDCK-MDR1
# in vitro [6] = details: human, Caco-2
# Aqueous solubility = format: physicochemical; details: pH 7.4
# [7] = Metabolic stability in hepatocytes; format: in vitro ADME, mouse
# Description: as §1, §2, §3, §4
# Caco-2 cells = assay: Caco-2 permeability
# [8] = Plasma protein binding by equilibrium dialysis; format: in vitro ADME; details: mouse plasma; for recovery / remaining at 6 h / fraction unbound: both sexes, CD-1; for fraction unbound: read-out: %Bound (converted)
# MDCKII-MDR1 cells [9] = assay: MDCKII-MDR1 permeability; details: for Recovery% (BL-AP) / efflux ratio: Table S7
# BCR-ABL1 wt = BCR-ABL1 wt (Homo sapiens, UniProt P00519); assay: KinaseProfiler enzymatic radiometric kinase assay; details: read-out: Kinase IC50 BCR-ABL1 wt; [ATP] = 10 µM, n = 2
# Lipophilicity logD7.4 = format: physicochemical; details: pH 7.4
# mutant BCR-ABL1 kinases = assay: Biochemical kinase inhibition, summary statements; parameters: species or system human; details: read-out: IC50 against mutant BCR-ABL1 kinases
# K562 cells = assay: Cell viability assay (CellTiter-Glo); format: cell-based, human
# [10] = cited from earlier work
# [11] = cited from earlier work; remark: listed apart in the source
# Chain of cSRC wt (P12931 whole entry): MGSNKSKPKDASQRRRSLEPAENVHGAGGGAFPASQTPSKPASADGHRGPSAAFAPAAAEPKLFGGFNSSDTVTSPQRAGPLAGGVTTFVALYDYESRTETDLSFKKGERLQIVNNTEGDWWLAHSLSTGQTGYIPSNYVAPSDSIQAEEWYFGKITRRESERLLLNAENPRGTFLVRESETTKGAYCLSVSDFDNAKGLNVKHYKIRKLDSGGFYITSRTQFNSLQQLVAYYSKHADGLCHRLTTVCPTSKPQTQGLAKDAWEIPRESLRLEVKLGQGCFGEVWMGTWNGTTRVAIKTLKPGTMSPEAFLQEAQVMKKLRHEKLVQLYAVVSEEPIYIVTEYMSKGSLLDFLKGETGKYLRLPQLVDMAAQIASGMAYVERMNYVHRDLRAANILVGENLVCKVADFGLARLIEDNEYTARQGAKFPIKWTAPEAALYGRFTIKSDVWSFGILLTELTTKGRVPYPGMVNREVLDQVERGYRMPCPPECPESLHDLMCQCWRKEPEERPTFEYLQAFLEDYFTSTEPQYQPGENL
# Chain of BCR-ABL1 wt (P00519 27-1130 limits assumed): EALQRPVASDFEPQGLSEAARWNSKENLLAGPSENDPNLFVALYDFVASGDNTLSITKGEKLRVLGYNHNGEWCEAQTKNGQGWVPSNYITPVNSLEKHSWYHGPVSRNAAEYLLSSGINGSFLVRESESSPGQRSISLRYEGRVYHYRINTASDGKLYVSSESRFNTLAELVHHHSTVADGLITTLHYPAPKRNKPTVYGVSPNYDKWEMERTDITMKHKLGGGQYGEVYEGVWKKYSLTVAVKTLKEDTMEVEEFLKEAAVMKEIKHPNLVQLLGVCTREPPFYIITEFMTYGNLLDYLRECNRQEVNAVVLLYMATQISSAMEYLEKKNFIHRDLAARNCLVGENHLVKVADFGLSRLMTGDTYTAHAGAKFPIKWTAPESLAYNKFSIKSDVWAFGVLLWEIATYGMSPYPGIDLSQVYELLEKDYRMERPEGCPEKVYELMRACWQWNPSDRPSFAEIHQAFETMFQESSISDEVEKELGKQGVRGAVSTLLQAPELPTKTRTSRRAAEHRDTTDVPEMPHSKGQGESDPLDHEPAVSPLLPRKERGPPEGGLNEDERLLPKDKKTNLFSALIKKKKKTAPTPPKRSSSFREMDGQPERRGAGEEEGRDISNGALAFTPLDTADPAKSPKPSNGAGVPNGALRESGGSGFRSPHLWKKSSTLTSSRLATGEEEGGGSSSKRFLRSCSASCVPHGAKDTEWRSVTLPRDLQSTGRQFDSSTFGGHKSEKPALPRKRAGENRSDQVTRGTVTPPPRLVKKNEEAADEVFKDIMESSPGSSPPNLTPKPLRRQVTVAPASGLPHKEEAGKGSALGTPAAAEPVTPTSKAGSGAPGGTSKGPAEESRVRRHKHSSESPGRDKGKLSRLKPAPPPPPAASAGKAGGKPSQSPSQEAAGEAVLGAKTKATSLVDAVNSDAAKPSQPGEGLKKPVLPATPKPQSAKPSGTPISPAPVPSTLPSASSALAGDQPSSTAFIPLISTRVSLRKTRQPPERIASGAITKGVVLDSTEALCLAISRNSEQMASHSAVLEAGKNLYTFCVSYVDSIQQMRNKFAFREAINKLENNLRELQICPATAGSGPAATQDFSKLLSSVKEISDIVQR
# T1 sequence (Q12809 whole entry): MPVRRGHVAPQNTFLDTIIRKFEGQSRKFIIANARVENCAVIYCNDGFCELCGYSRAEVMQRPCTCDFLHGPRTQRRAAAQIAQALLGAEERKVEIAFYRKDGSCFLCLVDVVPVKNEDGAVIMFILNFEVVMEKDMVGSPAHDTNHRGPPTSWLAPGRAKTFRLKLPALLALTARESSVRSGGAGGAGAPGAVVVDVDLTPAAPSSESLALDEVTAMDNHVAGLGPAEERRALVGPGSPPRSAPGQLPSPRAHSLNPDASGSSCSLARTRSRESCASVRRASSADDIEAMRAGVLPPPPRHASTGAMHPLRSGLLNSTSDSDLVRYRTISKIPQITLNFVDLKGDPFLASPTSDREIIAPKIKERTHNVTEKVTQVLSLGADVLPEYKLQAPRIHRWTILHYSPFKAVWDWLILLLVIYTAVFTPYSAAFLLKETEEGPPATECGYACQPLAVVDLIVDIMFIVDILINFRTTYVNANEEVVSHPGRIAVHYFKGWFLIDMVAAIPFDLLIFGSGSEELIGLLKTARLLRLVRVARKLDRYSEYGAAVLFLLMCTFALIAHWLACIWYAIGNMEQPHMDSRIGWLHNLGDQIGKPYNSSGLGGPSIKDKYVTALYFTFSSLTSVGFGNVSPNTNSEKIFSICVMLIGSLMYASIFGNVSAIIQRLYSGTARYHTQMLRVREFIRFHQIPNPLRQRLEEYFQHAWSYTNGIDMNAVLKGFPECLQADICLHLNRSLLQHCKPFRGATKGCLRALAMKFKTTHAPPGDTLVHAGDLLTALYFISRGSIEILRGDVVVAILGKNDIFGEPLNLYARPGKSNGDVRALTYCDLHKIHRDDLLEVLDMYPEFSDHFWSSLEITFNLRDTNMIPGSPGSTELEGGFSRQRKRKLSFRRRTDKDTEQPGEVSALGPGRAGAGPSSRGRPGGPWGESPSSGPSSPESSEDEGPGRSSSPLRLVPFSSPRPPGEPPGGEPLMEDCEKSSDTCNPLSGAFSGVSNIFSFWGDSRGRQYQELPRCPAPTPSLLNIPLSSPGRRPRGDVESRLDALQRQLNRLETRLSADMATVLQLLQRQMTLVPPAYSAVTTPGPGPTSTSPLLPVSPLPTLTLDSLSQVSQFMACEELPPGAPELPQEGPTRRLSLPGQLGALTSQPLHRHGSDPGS
compound,measurement,setting,value
COc1cc2ncnc(Nc3ccc(F)c(Cl)c3)c2cc1OCCON1CCN(C)CC1 [6a],MDCKII-MDR1 Efflux Ratio,MDCKII-MDR1 cells [1],8.7
same,P-gp efflux status,MDCKII-MDR1 cells [1],P-gp Substrate
"Cc1ccc(NC(=O)c2ccc(CN3CCN(C)CC3)cc2)cc1Nc1nccc(-c2cccnc2)n1 [Imatinib, imatinib]",P-gp efflux status,P-glycoprotein (P-gp),P-gp Substrate
"COc1cc(Cl)ccc1Nc1c(C#N)cnc2cc(OCCON3CCN(C)CC3)c(OC)cc12 [15a, 4-((4-Chloro-2-methoxyphenyl)amino)-6-methoxy-7-(2-((4-methylpiperazin-1-yl)oxy)ethoxy)quinoline-3-carbonitrile]",IC50,cSRC wt,11 nM
same,IC50,[2],4360 nM
same,fraction unbound,[3],0.0773
same,recovery,[3],95.8%
same,remaining at 6 h,[3],99.4%
same,%Unbound,[3],7.73%
same,Remaining Percentages,[4]; 0.5 min,100.00%
same,Remaining Percentages,[4]; 15 min,78.44%
same,Remaining Percentages,[4]; 30 min,63.53%
same,Remaining Percentages,[4]; 60 min,43.29%
same,Remaining Percentages,[4]; 90 min,27.95%
same,Remaining Percentages,[4]; 120 min,20.14%
same,hepatocyte CLint,[4],26.8 µL/min/1e6 cells
same,t1/2 (H),[4],0.862 h
same,recovery,in vitro [5],84.5%
same,Papp A→B,MDR1 (P-gp),5.9 ×10⁻⁶ cm/s
same,Papp B→A,MDR1 (P-gp),24.8 ×10⁻⁶ cm/s
same,Papp B→A,MDR1,24.8 ×10⁻⁶ cm/s
same,efflux ratio,MDR1,4.2
same,Papp A→B,in vitro [6],0.71 ×10⁻⁶ cm/s
same,Papp B→A,in vitro [6],4.44 ×10⁻⁶ cm/s
same,efflux ratio,in vitro [6],6.3
same,recovery,in vitro [6],72.2%
same,Aq. Sol.,Aqueous solubility,0.8 µM
same,Remaining Percentages,[7]; 0.5 min,100.00%
same,Remaining Percentages,[7]; 15 min,55.53%
same,Remaining Percentages,[7]; 30 min,28.57%
same,Remaining Percentages,[7]; 60 min,13.26%
same,Remaining Percentages,[7]; 90 min,6.75%
same,Remaining Percentages,[7]; 120 min,2.89%
same,Recovery% (BL-AP),Caco-2 cells; Table S9,78.22%
same,efflux ratio,Caco-2 cells; Table S9,6.24
same,Caco-2 Papp (a-b),Caco-2 cells,0.7 ×10⁻⁶ cm/s
same,Caco-2 Papp (b-a),Caco-2 cells,4.4 ×10⁻⁶ cm/s
same,recovery,[8],95.9%
same,remaining at 6 h,[8],106%
same,fraction unbound,[8],0.0971
same,%Unbound,[8],9.71%
same,Recovery% (BL-AP),MDCKII-MDR1 cells [9],72.29%
same,IC50,BCR-ABL1 wt,6 nM
same,logD,Lipophilicity logD7.4,3.1
"COc1cc2c(Nc3cccc(OC)c3F)c(C#N)cnc2cc1OCCON1CCN(C)CC1 [13a, 4-((2-Fluoro-3-methoxyphenyl)amino)-6-methoxy-7-(2-((4-methylpiperazin-1-yl)oxy)ethoxy)quinoline-3-carbonitrile]",IC50,mutant BCR-ABL1 kinases,≥ 15 nM
same,IC50,cSRC wt,34 nM
same,fraction unbound,[3],0.13
same,recovery,[3],87.8%
same,remaining at 6 h,[3],98.3%
same,%Unbound,[3],12.97%
same,Remaining Percentages,[4]; 0.5 min,100.00%
same,Remaining Percentages,[4]; 15 min,97.02%
same,Remaining Percentages,[4]; 30 min,95.67%
same,Remaining Percentages,[4]; 60 min,80.41%
same,Remaining Percentages,[4]; 90 min,67.22%
same,Remaining Percentages,[4]; 120 min,54.89%
same,hepatocyte CLint,[4],10.3 µL/min/1e6 cells
same,t1/2 (H),[4],2.243 h
same,recovery,in vitro [5],93.1%
same,Papp A→B,MDR1 (P-gp),7.5 ×10⁻⁶ cm/s
same,Papp B→A,MDR1 (P-gp),54.4 ×10⁻⁶ cm/s
same,Papp A→B,MDR1,7.53 ×10⁻⁶ cm/s
same,Papp B→A,MDR1,54.4 ×10⁻⁶ cm/s
same,efflux ratio,MDR1,7.3
same,Papp A→B,in vitro [6],2.72 ×10⁻⁶ cm/s
same,Papp B→A,in vitro [6],33.6 ×10⁻⁶ cm/s
same,efflux ratio,in vitro [6],12.4
same,recovery,in vitro [6],84.8%
same,Aq. Sol.,Aqueous solubility,29 µM
same,Recovery% (BL-AP),Caco-2 cells; Table S9,92.56%
same,efflux ratio,Caco-2 cells; Table S9,12.36
same,Caco-2 Papp (a-b),Caco-2 cells,2.7 ×10⁻⁶ cm/s
same,Caco-2 Papp (b-a),Caco-2 cells,33.6 ×10⁻⁶ cm/s
same,Recovery% (BL-AP),MDCKII-MDR1 cells [9],105.61%
same,efflux ratio,MDCKII-MDR1 cells [9],7.26
same,IC50,BCR-ABL1 wt,19 nM
same,logD,Lipophilicity logD7.4,2.6
COc1cc(Nc2c(C#N)cnc3cc(OCCON4CCN(C)CC4)c(OC)cc23)ccc1Cl [14a],IC50,cSRC wt,2 nM
same,Remaining Percentages,[4]; 0.5 min,100.00%
same,Remaining Percentages,[4]; 15 min,83.13%
same,Remaining Percentages,[4]; 30 min,68.12%
same,Remaining Percentages,[4]; 60 min,50.16%
same,Remaining Percentages,[4]; 90 min,37.41%
same,Remaining Percentages,[4]; 120 min,25.52%
same,hepatocyte CLint,[4],22.3 µL/min/1e6 cells
same,t1/2 (H),[4],1.04 h
same,recovery,in vitro [5],75.4%
same,Papp A→B,MDR1 (P-gp),4.1 ×10⁻⁶ cm/s
same,Papp B→A,MDR1 (P-gp),24.7 ×10⁻⁶ cm/s
same,Papp A→B,MDR1,4.08 ×10⁻⁶ cm/s
same,Papp B→A,MDR1,24.7 ×10⁻⁶ cm/s
same,efflux ratio,MDR1,6
same,Papp A→B,in vitro [6],1.99 ×10⁻⁶ cm/s
same,Papp B→A,in vitro [6],37.4 ×10⁻⁶ cm/s
same,efflux ratio,in vitro [6],18.7
same,IC50,"K562 cells; Homo sapiens, K562, 72 h, read-out: K562 Cell Line IC50 (95% CI), 72 h, n = 3, unadjusted for FBS",218 nM
same,IC50,"K562 cells; read-out: K562 Cell Line IC50 (95% CI), 72 h, n = 3, unadjusted for FBS",186 nM
same,Aq. Sol.,Aqueous solubility,7 µM
same,Recovery% (AP-BL),Caco-2 cells; Table S9,65.43%
same,Recovery% (BL-AP),Caco-2 cells; Table S9,92.37%
same,efflux ratio,Caco-2 cells; Table S9,18.96
same,Caco-2 Papp (a-b),Caco-2 cells,2 ×10⁻⁶ cm/s
same,Caco-2 Papp (b-a),Caco-2 cells,37.4 ×10⁻⁶ cm/s
same,Recovery% (BL-AP),MDCKII-MDR1 cells [9],77.51%
same,efflux ratio,MDCKII-MDR1 cells [9],6.05
same,IC50,BCR-ABL1 wt,< 1 nM
same,logD,Lipophilicity logD7.4,3.1
"C[C@H]1O[C@@H](O[C@H]2[C@@H](O)C[C@H](O[C@H]3[C@@H](O)C[C@H](O[C@H]4CC[C@@]5(C)[C@H](CC[C@@H]6[C@@H]5C[C@@H](O)[C@]5(C)[C@@H](C7=CC(=O)OC7)CC[C@]65O)C4)O[C@@H]3C)O[C@@H]2C)C[C@H](O)[C@@H]1O [Digoxin, reference compound]",recovery,in vitro [5],82.4%
same,Papp A→B,MDR1,0.62 ×10⁻⁶ cm/s
same,Papp B→A,MDR1,13.9 ×10⁻⁶ cm/s
same,efflux ratio,MDR1,22.7
same,Papp A→B,in vitro [6],0.22 ×10⁻⁶ cm/s
same,Papp B→A,in vitro [6],12.6 ×10⁻⁶ cm/s
same,efflux ratio,in vitro [6],58.6
same,recovery,in vitro [6],89.9%
same,Recovery% (BL-AP),Caco-2 cells; Table S9,92.72%
same,Recovery% (BL-AP),MDCKII-MDR1 cells [9],93.20%
"COCCc1ccc(OCC(O)CNC(C)C)cc1 (stereo not shown) [Metoprolol, reference compound]",recovery,in vitro [5],112%
same,Papp A→B,MDR1,31.6 ×10⁻⁶ cm/s
same,Papp B→A,MDR1,28.1 ×10⁻⁶ cm/s
same,efflux ratio,MDR1,0.89
same,Papp A→B,in vitro [6],18.8 ×10⁻⁶ cm/s
same,Papp B→A,in vitro [6],19.4 ×10⁻⁶ cm/s
same,recovery,in vitro [6],95.3%
same,Recovery% (BL-AP),Caco-2 cells; Table S9,95.54%
same,Recovery% (BL-AP),MDCKII-MDR1 cells [9],99.15%
COc1cc(Nc2c(C#N)cnc3cc(OCCON4CCN(C)CC4)c(OC)cc23)c(Cl)cc1Cl [5a],Micronucleus,[10],Negative
"O=C(Nc1ccc(OC(F)(F)Cl)cc1)c1cnc(N2CC[C@@H](O)C2)c(-c2ccn[nH]2)c1 [Asciminib, asciminib]",P-gp efflux status,P-glycoprotein (P-gp),P-gp Substrate
COc1cc2ncnc(Nc3cccc(Cl)c3F)c2cc1OC(=O)N1CCN(C)C[C@H]1C [AZD3759],MDCKII-MDR1 Efflux Ratio,MDCKII-MDR1 cells [1],0.4
same,P-gp efflux status,MDCKII-MDR1 cells [1],Not a P-gp Substrate
COc1c2c(cc3ncnc(Nc4ccccc4)c13)OCCO2 [compound 10],Abraham ANMR Value,[11],0.02
"Cc1nc(Nc2ncc(C(=O)Nc3c(C)cccc3Cl)s2)cc(N2CCN(CCO)CC2)n1 [Dasatinib, dasatinib]",P-gp efflux status,P-glycoprotein (P-gp),P-gp Substrate
"COc1cc2c(Nc3cccc(OC)c3Cl)c(C#N)cnc2cc1OCCON1CCN(C)CC1 [12a, 4-((2-Chloro-3-methoxyphenyl)amino)-6-methoxy-7-(2-((4-methylpiperazin-1-yl)oxy)ethoxy)quinoline-3-carbonitrile]",IC50,mutant BCR-ABL1 kinases,≥ 15 nM
same,IC50,cSRC wt,14 nM
same,IC50,[2],5160 nM
same,fraction unbound,[3],0.0737
same,recovery,[3],92.5%
same,remaining at 6 h,[3],97.8%
same,%Unbound,[3],7.37%
same,Remaining Percentages,[4]; 0.5 min,100.00%
same,Remaining Percentages,[4]; 15 min,87.31%
same,Remaining Percentages,[4]; 30 min,80.64%
same,Remaining Percentages,[4]; 60 min,60.46%
same,Remaining Percentages,[4]; 90 min,46.43%
same,Remaining Percentages,[4]; 120 min,35.84%
same,hepatocyte CLint,[4],17.2 µL/min/1e6 cells
same,t1/2 (H),[4],1.34 h
same,recovery,in vitro [5],95%
same,Papp A→B,MDR1 (P-gp),12.5 ×10⁻⁶ cm/s
same,Papp B→A,MDR1 (P-gp),39 ×10⁻⁶ cm/s
same,Papp A→B,MDR1,12.5 ×10⁻⁶ cm/s
same,Papp B→A,MDR1,39 ×10⁻⁶ cm/s
same,efflux ratio,MDR1,3.1
same,Papp A→B,in vitro [6],6.46 ×10⁻⁶ cm/s
same,Papp B→A,in vitro [6],23.1 ×10⁻⁶ cm/s
same,efflux ratio,in vitro [6],3.6
same,recovery,in vitro [6],76.2%
same,Aq. Sol.,Aqueous solubility,123 µM
same,Recovery% (BL-AP),Caco-2 cells; Table S9,87.19%
same,efflux ratio,Caco-2 cells; Table S9,3.58
same,Caco-2 Papp (a-b),Caco-2 cells,6.5 ×10⁻⁶ cm/s
same,Caco-2 Papp (b-a),Caco-2 cells,23.1 ×10⁻⁶ cm/s
same,recovery,[8],92%
same,remaining at 6 h,[8],96.7%
same,fraction unbound,[8],0.119
same,%Unbound,[8],11.93%
same,enhancement in permeability in MDCKII-MDR1 cells relative to bosutinib,MDCKII-MDR1 cells [9],31 fold
same,Recovery% (BL-AP),MDCKII-MDR1 cells [9],91.60%
same,efflux ratio,MDCKII-MDR1 cells [9],3.22
same,IC50,BCR-ABL1 wt,20 nM
same,logD,Lipophilicity logD7.4,2.7
Fc1c2c(cc3ncnc(Nc4ccccc4)c13)OCCO2 [compound 9],Abraham ANMR Value,[11],0.10
